Data as given in patent publication EP4691468A1, “PHARMACEUTICAL COMPOSITION FOR TREATING INFLAMMATORY BOWEL DISEASE” (EA Pharma Co., Ltd., priority 2023, dated 2024).
≈ marks a conversion by molar mass, not a printed value. Where “and” joins values, the source holds several entries; their conditions need not be identical. Equal entries are not always repeated. Where two headings read alike, the source gives them in different places.

Assays:
MAdCAM-1 = experiment: Ex vivo MAdCAM-1 binding inhibition rate (PD) of lymphocytes in collected blood, flow cytometry; type: cell-based, human
Method: The MAdCAM-1 binding rate of lymphocytes in plasma was measured using a validated measurement method using the obtained blood samples, and the MAdCAM-1 binding inhibition rate of lymphocytes in plasma was calculated using Excel. Specifically, 5 µL of an 80 mM MnCl2 solution was added to 90 µL of heparinized blood and incubated at room temperature for 10 minutes. A volume of 5 µL of 200 µg/mL recombinant human MAdCAM-1/Fc (R&D Systems) was added to make a total volume of 100 µL, and the mixture was incubated at room temperature for 30 minutes. Subsequently, 1900 µL of BD Phosflow Lyse/Fix Buffer 5X (BD Biosciences) was added, and hemolysis and fixation were performed at 37°C for 10 minutes. After centrifugation for 5 minutes, the supernatant was removed, and 2000 µL of RPMI-1640 medium supplemented with 10% inactivated fetal bovine serum (hereinafter referred to as medium) was added. After centrifugation for 5 minutes, the supernatant was removed and washed. After washing again with the medium, 50 µL of Brilliant Stain Buffer (BD Biosciences), 1.25 µL of MAdCAM-1 FITC (Hycult Biotech), 5 µL of CD4 PE (BD Biosciences), 2.5 µL of CD45RO APC (UCHL1) (BioLegend), 5 µL of CD3 BV421 (SK7) (BioLegend), and 2.5 µL of CD45 BV510 (HI30) (BioLegend) were added, and the mixture was incubated for 30 minutes. After washing with Stain Buffer (BSA) (BD Biosciences), the percentage of MAdCAM-1-positive cells among CD3-positive CD4-positive cells was measured using flow cytometry.
The percentage of MAdCAM-1-positive cells among CD3-positive CD4-positive cells was calculated by subtracting each measured value from the measured value when MAdCAM-1/Fc was not added as a control. […]
The MAdCAM-1 binding inhibition rate (PD) of lymphocytes in plasma was evaluated using collected blood, and the correlation with the plasma concentration (PK) of Compound (2) was plotted (Fig. 5).

[1] = for 12-Hour Post-Dose Trough Values of Compound (2) after Repeated Administration / Average Plasma Concentrations of Compound (2) on Day 10 of Repeated Administration: Compound (1) 200 mg twice daily C-SEDDS
Method: A phase 1 clinical trial was conducted to evaluate the safety, tolerability, and pharmacokinetics of Compound (1) when orally administered to healthy adult males.
This clinical trial was a single-center, randomized, double-blind, placebo-controlled, single and multiple ascending dose study with the primary objective of evaluating the safety and tolerability of Compound (1) when orally administered to healthy adult males.
The subjects in each cohort consisted of 8 people, of which 6 were assigned to Compound (1) and 2 were assigned to placebo, and they were administered the drug.
Day 8, when repeated administration was started, corresponds to administration day 1 (Day 1), and day 17 corresponds to administration day 10 (Day 10).
The plasma concentration of Compound (2) was measured using a validated measurement method. Specifically, plasma was separated from collected blood and processed, and then the plasma concentration was measured by an LC/MS/MS apparatus.
For twice-daily administration of C-SEDDS, blood was further collected at 13, 14, 14.5, and 16 hours later to quantify Compound (2).

[2] = plasma concentration, MAdCAM-1-positive cells among CD3-positive CD4-positive cells, ex vivo blood of healthy adult males
[3] = Measured Value, Repeated, Twice daily, 400(200×2)/C-SEDDS, day 10

Cc1cc(=O)n(-c2ccc(C[C@H](NC(=O)c3cc(F)c(NS(=O)(=O)c4ccc(NC(=O)C(C)(C)C)cc4)cc3F)C(=O)O)cn2)c(=O)n1C [Compound (2)]
correlation of MAdCAM-1 binding inhibition rate (PD) with plasma concentration (PK) (MAdCAM-1; collected blood, Fig. 5): correlated | IC50 (concentration that causes 50% binding inhibition) (MAdCAM-1; [2]): 1.9 ng/mL (≈ 2.72 nM) | IC90 (concentration that causes 90% binding inhibition) (MAdCAM-1; [2]): 6.9 ng/mL (≈ 9.88 nM) | increase of plasma concentration (trough value) 12 hours after the second dose on the 10th day of repeated administration ([1]; C-SEDDS 200 mg twice daily, versus single-dose administration): about eightfold | 12-Hour Post-Dose Trough Values of Compound (2) after Repeated Administration ([1]; Day 0.5): 2.025 ng/mL | 12-Hour Post-Dose Trough Values of Compound (2) after Repeated Administration ([1]; Day 1): 3.653 ng/mL | 12-Hour Post-Dose Trough Values of Compound (2) after Repeated Administration ([1]; Day 1.5): 4.250 ng/mL | 12-Hour Post-Dose Trough Values of Compound (2) after Repeated Administration ([1]; Day 2): 6.021 ng/mL | 12-Hour Post-Dose Trough Values of Compound (2) after Repeated Administration ([1]; Day 2.5): 7.700 ng/mL | 12-Hour Post-Dose Trough Values of Compound (2) after Repeated Administration ([1]; Day 3): 7.026 ng/mL | 12-Hour Post-Dose Trough Values of Compound (2) after Repeated Administration ([1]; Day 3.5): 7.381 ng/mL | 12-Hour Post-Dose Trough Values of Compound (2) after Repeated Administration ([1]; Day 4): 9.303 ng/mL | 12-Hour Post-Dose Trough Values of Compound (2) after Repeated Administration ([1]; Day 4.5): 9.167 ng/mL | 12-Hour Post-Dose Trough Values of Compound (2) after Repeated Administration ([1]; Day 5): 9.985 ng/mL | 12-Hour Post-Dose Trough Values of Compound (2) after Repeated Administration ([1]; Day 5.5): 12.59 ng/mL | 12-Hour Post-Dose Trough Values of Compound (2) after Repeated Administration ([1]; Day 6): 11.20 ng/mL | 12-Hour Post-Dose Trough Values of Compound (2) after Repeated Administration ([1]; Day 6.5): 10.81 ng/mL | 12-Hour Post-Dose Trough Values of Compound (2) after Repeated Administration ([1]; Day 7): 11.82 ng/mL | 12-Hour Post-Dose Trough Values of Compound (2) after Repeated Administration ([1]; Day 7.5): 10.83 ng/mL | 12-Hour Post-Dose Trough Values of Compound (2) after Repeated Administration ([1]; Day 8): 14.16 ng/mL | 12-Hour Post-Dose Trough Values of Compound (2) after Repeated Administration ([1]; Day 8.5): 12.12 ng/mL | 12-Hour Post-Dose Trough Values of Compound (2) after Repeated Administration ([1]; Day 9): 15.06 ng/mL | 12-Hour Post-Dose Trough Values of Compound (2) after Repeated Administration ([1]; Day 9.5): 12.20 ng/mL | 12-Hour Post-Dose Trough Values of Compound (2) after Repeated Administration ([1]; Day 10): 13.69 ng/mL | Average Plasma Concentrations of Compound (2) on Day 10 of Repeated Administration ([1]; Day 10, Time 0.5 h): 11.82 ng/mL | Average Plasma Concentrations of Compound (2) on Day 10 of Repeated Administration ([1]; Day 10, Time 1 h): 10.63 ng/mL | Average Plasma Concentrations of Compound (2) on Day 10 of Repeated Administration ([1]; Day 10, Time 1.5 h): 10.52 ng/mL | Average Plasma Concentrations of Compound (2) on Day 10 of Repeated Administration ([1]; Day 10, Time 2 h): 14.42 ng/mL | Average Plasma Concentrations of Compound (2) on Day 10 of Repeated Administration ([1]; Day 10, Time 2.5 h): 17.31 ng/mL | Average Plasma Concentrations of Compound (2) on Day 10 of Repeated Administration ([1]; Day 10, Time 3 h): 18.02 ng/mL | Average Plasma Concentrations of Compound (2) on Day 10 of Repeated Administration ([1]; Day 10, Time 4 h): 20.07 ng/mL | Average Plasma Concentrations of Compound (2) on Day 10 of Repeated Administration ([1]; Day 10, Time 5 h): 20.59 ng/mL | Average Plasma Concentrations of Compound (2) on Day 10 of Repeated Administration ([1]; Day 10, Time 6 h): 14.19 ng/mL | Average Plasma Concentrations of Compound (2) on Day 10 of Repeated Administration ([1]; Day 10, Time 7 h): 12.13 ng/mL | Average Plasma Concentrations of Compound (2) on Day 10 of Repeated Administration ([1]; Day 10, Time 8 h): 10.93 ng/mL | Average Plasma Concentrations of Compound (2) on Day 10 of Repeated Administration ([1]; Day 10, Time 12 h): 12.20 ng/mL | Average Plasma Concentrations of Compound (2) on Day 10 of Repeated Administration ([1]; Day 10, Time 13 h): 15.64 ng/mL | Average Plasma Concentrations of Compound (2) on Day 10 of Repeated Administration ([1]; Day 10, Time 14 h): 25.37 ng/mL | Average Plasma Concentrations of Compound (2) on Day 10 of Repeated Administration ([1]; Day 10, Time 14.5 h): 25.16 ng/mL | Average Plasma Concentrations of Compound (2) on Day 10 of Repeated Administration ([1]; Day 10, Time 15 h): 22.99 ng/mL | Average Plasma Concentrations of Compound (2) on Day 10 of Repeated Administration ([1]; Day 10, Time 16 h): 20.48 ng/mL | Average Plasma Concentrations of Compound (2) on Day 10 of Repeated Administration ([1]; Day 10, Time 21 h): 13.24 ng/mL | Average Plasma Concentrations of Compound (2) on Day 10 of Repeated Administration ([1]; Day 10, Time 24 h): 13.69 ng/mL | 12-Hour Post-Dose Trough Values of Compound (2) after Repeated Administration ([1]; Initial Value): 0.000 ng/mL | Judgment Trough Value [1, 3]: A (IC90 (6.9 ng/mL) or higher) | Plasma Concentration Trough Value [1, 3]: 13.69 ng/mL and 13.7 ng/mL
